Test results taken from patent US20240130367A1, “PLANT GROWTH PROMOTERS” (University of Durham, priority 2020, published 2024).

Key:
[1] = test system: Arabidopsis thaliana wild-type; assay: Root growth assay, seedlings on agar plates containing chemical; assay type: in vivo; details: 100 μM; for Root growth activity relative to A1: 7-day old seedlings, 5 days
Procedure: Arabidopsis thaliana wild-type seeds were from laboratory stocks of Columbia (Col-0) and Landsberg erecta (Ler-0) accessions. […] Seeds were plated out 1×MS medium pH 5.8 (T. Murashige and F. Skoog (1962) Physiologia Plantarum 15: 473-497) in petri dishes with a concentration of either 0.8% or 1.2% (w/v) phytoagar for root and hypocotyl measurements, respectively. After sowing seeds were stratified on plates at 4° C. for a minimum of 48 h to achieve synchronous germination. Seedlings were grown for either 7 or 2 days for root and hypocotyl measurements, respectively, prior to treatment with chemicals. […] Seedling were grown in a Percival (CU-36L5D, CLF plant climatics, Emersacker, Germany) with a photoperiod of 16/8 h with a light intensity of either 150 μmol m^2 s^−1 or 50 μmol m^2 s^−1 for root and hypocotyl measurements, respectively, and a temperature of 20±1° C.
The effect of the A1 analogues on root and hypocotyl growth was investigated. In order to allow a direct comparison with eW5, the concentration used in these assays was 100 μM. The root growth assay was performed by treating the 7-day old seedlings on chemical plates for 5 days.

RGA-GFP = assay: DELLA degradation: confocal imaging of RGA-GFP fluorescence in roots; assay type: in vivo, Arabidopsis thaliana; details: 100 μM; for GFP fluorescence / stability of DELLA protein in roots: A1 imaged after 2 and 24 hours, PAC applied 48 hours before
Text: (§1) Arabidopsis thaliana wild-type seeds were from laboratory stocks of Columbia (Col-0) and Landsberg erecta (Ler-0) accessions. Arabidopsis thaliana is a dicot. The mutants of gid1 (J. Griffiths, et al., Plant Cell, 2006, 18, 3399-3414) were obtained from Dr. Steve Thomas (Rothamsted Research, UK) and were in a Col-0 background, whilst the della quintuple mutant (S. H. Feng et al. Nature, 2008, 451: 475-479) and ga1-5 (I. Fridborg et al. Plant Cell, 1999, 11: 1019-1031) were in a Ler-0 background and was obtained from the Nottingham Arabidopsis Stock Centre (NASC). The A. thaliana line expressing RGA-GFP (A. L. Silverstone et al. The Plant Cell, 2001, 13: 1555-1565), Col-0 background was obtained from Prof. Keith Lindsey (Durham University, UK). Seeds were plated out 1×MS medium pH 5.8 (T. Murashige and F. Skoog (1962) Physiologia Plantarum 15: 473-497) in petri dishes with a concentration of either 0.8% or 1.2% (w/v) phytoagar for root and hypocotyl measurements, respectively. After sowing seeds were stratified on plates at 4° C. for a minimum of 48 h to achieve synchronous germination. Seedlings were grown for either 7 or 2 days for root and hypocotyl measurements, respectively, prior to treatment with chemicals. For hypocotyl measurements, seeds were sown on nylon mesh (acid resistant monofilament nylon filter mesh fabric; GZ, model number H20M). Seedling were grown in a Percival (CU-36L5D, CLF plant climatics, Emersacker, Germany) with a photoperiod of 16/8 h with a light intensity of either 150 μmol m^2 s^−1 or 50 μmol m^2 s^−1 for root and hypocotyl measurements, respectively, and a temperature of 20±1° C.
Confocal microscopy was performed using a Leica SP5 CLSM FLIM FCCS (Leica Microsystems, Wetzlar, Germany). GFP:RGA seeds were germinated and grown on 1.2% MS vertically for 7 days, and then incubated in chemical solution (at the final concentration of 100 μM) for 2 and 24 hours before being analyzed. […] The excitation wavelength of the argon laser was 488 nm and the emission was detected using a bypass filter of 495-550 nm. […]

maize = assay: Growth of a monocot on application of A1; assay type: in vivo
ga1-5 mutant = assay: Hypocotyl growth assay in GA biosynthesis mutant ga1-5; assay type: in vivo, Arabidopsis thaliana; details: 100 μM, three days
Text: (§2) Arabidopsis thaliana wild-type seeds were from laboratory stocks of Columbia (Col-0) and Landsberg erecta (Ler-0) accessions. Arabidopsis thaliana is a dicot. The mutants of gid1 (J. Griffiths, et al., Plant Cell, 2006, 18, 3399-3414) were obtained from Dr. Steve Thomas (Rothamsted Research, UK) and were in a Col-0 background, whilst the della quintuple mutant (S. H. Feng et al. Nature, 2008, 451: 475-479) and ga1-5 (I. Fridborg et al. Plant Cell, 1999, 11: 1019-1031) were in a Ler-0 background and was obtained from the Nottingham Arabidopsis Stock Centre (NASC). The A. thaliana line expressing RGA-GFP (A. L. Silverstone et al. The Plant Cell, 2001, 13: 1555-1565), Col-0 background was obtained from Prof. Keith Lindsey (Durham University, UK). […]
(§3) After growing as described above seedlings for root assays were transferred to 1.2% (w/v) agar plates containing each chemical at a final concentration of 100 μM (the addition of the chemicals was performed when media had cooled to 50° C. after autoclaving), with an equivalent concentration of DMSO as control. […] The plants were subsequently grown vertically and after a further 5 days images of the plates were scanned and the root growth that occurred during the 5 days on chemicals was measured using ImageJ software. 18 seedlings were measured for each treatment. […] At least 15 seedlings were measured for each plate. […]

Arabidopsis thaliana = assay: Fresh and dry weight measurements of treated seedlings; assay type: in vivo; details: 5 days chemical treatment
Procedure: Leaves and roots fresh weights of 12 days old seedlings, that were subjected to 5 days chemical treatment as described above, were measured. Dry weights were recorded after placing the plant material in oven at 65° C. for 3 days. The measurements were performed on 15 seedlings for each treatment.
Having discovered the root growth-promoting properties of A1, we wished to establish if the effects were limited to the roots, or whether A1 could also promote growth of shoot tissue. We were also interested to see if the effect was on fresh weight, dry weight or both. To investigate this, plants were treated with A1, divided into shoot and root material and the fresh and dry weight recorded.

della quintuple mutant = assay: Hypocotyl growth assay in della quintuple mutant; assay type: in vivo, Arabidopsis thaliana
Text: as §2, §3

[2] = test system: Arabidopsis thaliana wild-type; assay: Hypocotyl growth assay under reduced light; assay type: in vivo; details: 100 μM; for Effect on hypocotyl growth in wild type / Hypocotyl growth promotion relative to A1: reduced light; for New length (cm): trials 1, 2, 3 and SAM each with own DMSO control
Text: as §1
After growing as described above seedlings for root assays were transferred to 1.2% (w/v) agar plates containing each chemical at a final concentration of 100 μM (the addition of the chemicals was performed when media had cooled to 50° C. after autoclaving), with an equivalent concentration of DMSO as control. At this stage the positions of the root tips were marked on the petri dish. The plants were subsequently grown vertically and after a further 5 days images of the plates were scanned and the root growth that occurred during the 5 days on chemicals was measured using ImageJ software. 18 seedlings were measured for each treatment. For hypocotyl measurements the assay performed was adapted from de Lucas et al. (2008, supra). After growing seedlings as described above, the nylon mesh was transferred across to the plates containing chemical. The plants were then placed in vertical orientation for three days under reduced light intensity (by covering plates with 2 layers of 80 g·m^2 white paper) before the plates were scanned. The measurement of hypocotyl was done using ImageJ software. At least 15 seedlings were measured for each plate.
To determine the mechanism of A1 action via the GA/DELLA signaling pathway, the response of A1 in a series of GA synthesis/signalling mutants was investigated. For these assays the focus was on hypocotyl growth, because it is well established that DELLA can inhibit the binding of PIFs to their target promoter leading to a reduction in GA-regulated hypocotyl growth (A. Castillon, H. Shen and E. Huq (2007) Trends in Plant Science, 12: 514-521.; de Lucas et al. 2008, supra; S. H. Feng et al. 2008, supra. To establish the use of A1 in this assay, hypocotyl growth was first tested by growing the seedlings on agar plates containing A1, with GA and PAC used as positive and negative controls, respectively, for three days in reduced light conditions to achieve a balance between maximum and minimum hypocotyl growth. […] Having established the hypocotyl assay, DELLA-dependence of the A1 effect was then confirmed genetically. To test this, a mutant line that lacks all DELLA (GAI, RGA, RGL1, RGL2 and RGL3) function was used.
The effect of additional compounds on hypocotyl growth was investigated using the same methods as described above (100 μM of each compound was used). […]

gid1 double mutants = assay: Hypocotyl growth assay in GA receptor gid1 double mutants; assay type: in vivo, Arabidopsis thaliana
Text: as §2, §3

plant = details: known calmodulin inhibitors; cited from earlier work
[3] = hypocotyl, relative to the DMSO control of the same trial

Cl.NCCNS(=O)(=O)c1cccc2ccccc12 [eW5, 2′-Amino-1′-(1-naphthylsulfonylamino)Ethane Hydrochloric Acid Salt]
Effect on root growth compared to DMSO control ([1]; 5 days on chemical): promoted root growth | Time after which the DELLA degradation response could be observed (RGA-GFP): 2 h | GFP fluorescence / stability of DELLA protein in roots (RGA-GFP): reduced GFP fluorescence | Root, stem and leaf growth in maize (maize): Improved root, stem (hypocotyl in particular) and leaf growth | Recovery of hypocotyl elongation in ga1-5 (ga1-5 mutant): could not recover hypocotyl elongation | Fresh weight of roots and shoots (Arabidopsis thaliana; 12 days old seedlings): increased | Dry:fresh weight ratio in roots and shoots (Arabidopsis thaliana; dried at 65° C. for 3 days): increased | Effect on hypocotyl growth in mutant lacking all DELLA function (della quintuple mutant): no promotion of hypocotyl growth was observed | Effect on hypocotyl growth in wild type ([2]; three days): increased the hypocotyl length | Effect on hypocotyl growth in wild type ([2]; three days, listed as A1): stimulated hypocotyl growth in a manner very similar to GA | New Length ([2]; hypocotyl, three days, in cm): 0.9253 | Relative growth (cm) ([2]; hypocotyl, relative to DMSO control): 0.3497 | Effect on hypocotyl length in gid1 double mutants compared with wild type (gid1 double mutants): the effect was reduced in the mutants

Cc1ccc(CS(=O)(=O)NCCN)cc1.Cl [Compound E4, Alpha-p-xylenesulfonylethylene Diamine Hydrochloric Acid Salt]
Root growth activity relative to A1 [1]: higher activity than A1 | Hypocotyl growth promotion relative to A1 [2]: less hypocotyl growth promotion relative to A1

CC(C)(C)[C@@H](O)[C@@H](Cc1ccc(Cl)cc1)n1cncn1 (racemic) [PAC, paclobutrazol, reference compound]
GFP fluorescence / stability of DELLA protein in roots (RGA-GFP): stabilized the DELLA protein

Cl.NCCNS(=O)(=O)Cc1ccccc1 [Compound E3, Alpha-toluenesulfonylethylene Diamine Hydrochloric Acid Salt]
Root growth activity relative to A1 [1]: higher activity than A1 | Hypocotyl growth promotion relative to A1 [2]: less hypocotyl growth promotion relative to A1

NCCCCCCNS(=O)(=O)c1cccc2ccccc12 [Compound W5, N-(6-Aminohexyl)-1-naphthalenesulfonamide]
Effect on plant growth (plant): inhibit plant growth

NCCCCCCNS(=O)(=O)c1cccc2c(Cl)cccc12 [Compound W7, N-(6-Aminohexyl)-5-chloro-1-naphthalenesulfonamide]
Effect on plant growth (plant): inhibit plant growth

CN(CCN)S(=O)(=O)c1cccc2ccccc12.Cl [Compound E5, N-methyl-N-naphthylsulfonyl-1,2-ethanediamine Hydrochloric Acid Salt]
Root growth activity relative to A1 [1]: biggest effect | Hypocotyl growth promotion relative to A1 [2]: biggest effect

Cl.NCCN(Cc1ccccc1)S(=O)(=O)c1cccc2ccccc12 [SAM2, N-(2′-aminoethyl)-N-benzylnaphthalene-1-sulfonamide Hydrogen Chloride]
New length (cm) ([2]; hypocotyl, three days): 0.191 cm | Relative growth (cm) [2, 3]: −0.03046

Cc1ccc(S(=O)(=O)NCCN)cc1.Cl [JAR142, 4-methyl-N-(2′-aminoethyl)benzene-1-sulfonamide Hydrogen Chloride]
New length (cm) ([2]; hypocotyl, three days): 0.5868 cm | Relative growth (cm) [2, 3]: 0.4584

COc1ccc(S(=O)(=O)NCCN)cc1.Cl [JAR71, N-(2′-aminoethyl)-4-methoxybenzene-1-sulfonamide Hydrogen Chloride]
New length (cm) ([2]; hypocotyl, three days): 0.331 cm | Relative growth (cm) [2, 3]: 0.3734
